Our source for the EC50 values is US10654834B2 (Venenum Biodesign, LLC, priority 2016, dated 2020).

The target in one test is T1, human TGR5 receptor (Homo sapiens, UniProt Q8TDU6).
T1 construct: host or cells: CHO-K1 (hTGR5-CHO)
T1 sequence (Q8TDU6 1-330): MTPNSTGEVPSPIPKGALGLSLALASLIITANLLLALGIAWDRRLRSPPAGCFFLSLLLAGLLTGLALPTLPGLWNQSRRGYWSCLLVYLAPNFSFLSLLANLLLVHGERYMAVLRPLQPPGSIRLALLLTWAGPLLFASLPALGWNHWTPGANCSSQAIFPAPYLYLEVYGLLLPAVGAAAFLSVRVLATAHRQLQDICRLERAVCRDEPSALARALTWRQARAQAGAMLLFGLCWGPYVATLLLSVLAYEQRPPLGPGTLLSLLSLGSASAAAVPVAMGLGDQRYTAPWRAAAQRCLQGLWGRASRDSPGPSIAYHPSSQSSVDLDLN
Kind of test: Human TGR5 cAMP production assay (hTGR5-CHO cells, DiscoveRx cAMP XS+ kit). In kind it is cell-based. The settings on record: luminescent cAMP assay, read-out: Human TGR5 Lum. cAMP Activity (EC50). Here is the method:
Human TGR5 cAMP Production Assay
Compounds of the present invention were evaluated for their ability to induce cAMP production using CHO-K1 cells overexpressing the human TGR5 receptor.
CHO-K1 cells stably expressing human TGR5 receptor (accession number NM_001077194.1) (hTGR5) (i.e., hTGR5-CHO cells) were purchased from DiscoveRx Corporation (Fremont, Calif.). hTGR5-CHO cells were grown in Ham's F-12 media supplemented with 10% Fetal Bovine Serum, 1% Penicillin-Streptomycin, 2 mM L-Alanine L-Glutamine (Glutamax), and 800 μg/mL Geneticin selection. The cAMP production assay was performed using DiscoveRx's cAMP XS+ kit (Catalog No. 90-0075XL) following the manufacturer's recommended protocol. Briefly, hTGR5-CHO cells were harvested using non-enzymatic cell dissociation buffer (Sigma-Aldrich, St. Louis, Mo.) and 1×10^6 cells were combined in Phosphate-Buffered Saline (PBS) to a final volume of 496 μL to which 4 μL of 125 mM IBMX (Sigma-Aldrich, St. Louis, Mo.) was added. 500 μL of cAMP antibody solution was added to the harvested cells and incubated at room temperature for 20 min.
Test compounds were serially diluted (half-log dilutions) in DMSO and then further diluted 1:50 in PBS, 10 mM HEPES buffer. 2 μL of serially diluted compound was added to a 384-well low volume plate (Greiner; cat #784075) and centrifuged briefly. 2 μl of the cell/cAMP antibody mixture was then added to each compound-containing well and allowed to incubate at room temperature for one hour. Following incubation, the XS+ kits' ED/Lysis/CL Substrate Working Solution was prepared following the manufacturer's recommended protocol and 4 μL was added to each well of the plate. The plate was then incubated for one hour at room temperature. Following incubation, 4 μL of Enzyme Acceptor reagent was added to the plate and allowed to incubate overnight at room temperature. Luminescent signal was then detected using the Viewlux instrument (Perkin-Elmer, Waltham, Mass.).
Human and Mouse TGR5 cAMP
(§1) In Table 52, EC50 values for both human and mouse cells were determined according to the TGR5 cAMP assays described above. […]
(In general: Cyclic AMP is a second messenger, typically raised through Gs and lowered through Gi signalling.)

A further test deals with T2, mouse TGR5 receptor (Mus musculus, UniProt Q80SS6).
T2 construct: host or cells: HEK293-EBNA (293 c18, ATCC CRL10852)
T2 sequence (Q80SS6 1-329): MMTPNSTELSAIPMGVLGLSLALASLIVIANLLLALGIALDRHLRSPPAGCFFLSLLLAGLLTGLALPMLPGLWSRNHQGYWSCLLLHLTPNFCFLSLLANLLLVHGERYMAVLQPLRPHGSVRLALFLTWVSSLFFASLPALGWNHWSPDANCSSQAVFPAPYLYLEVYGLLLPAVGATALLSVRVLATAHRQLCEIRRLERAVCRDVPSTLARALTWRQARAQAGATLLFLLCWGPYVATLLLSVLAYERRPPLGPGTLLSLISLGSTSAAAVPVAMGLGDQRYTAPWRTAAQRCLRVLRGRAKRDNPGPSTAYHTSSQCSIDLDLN
Kind of test: Mouse TGR5 HTRF cAMP production assay (HEK293-EBNA cells, Cisbio cAMP HiRange kit). The test is classed as cell-based. The conditions noted are these: HEK293-EBNA cells overexpressing mouse TGR5, HTRF cAMP assay. The method, then:
Mouse TGR5 cAMP Production Assay
Compounds of the present invention were evaluated for their ability to induce cAMP production in HEK-EBNA cells overexpressing the mouse TGR5 receptor. Human embryonic kidney cells (HEK293-EBNA) stably expressing mouse TGR5 receptor were established using the following procedure. Specifically, a commercially obtained gene encoding mouse TGR5 (accession number BC116914) from Thermo Scientific (Waltham, Mass.) was cloned into an episomal expression vector. The resulting expression plasmid was then transfected into 293 c18 (ATCC® CRL10852™) cells, which express the Epstein-Barr virus nuclear antigen EBNA1 and can support the replication of episomal vectors. Selection for the plasmid was maintained with Hygromycin B. Cells were cultured and maintained in DMEM (Sigma; cat #6429) supplemented with 10% Fetal Bovine Serum, 1% penicillin/streptomycin, 2 mM L-alanine L-glutamine (GlutaMax), and 250 μg/mL Hygromycin.
We developed two cAMP production assays.
(ii) HTRF cAMP Production Assay
In this second cAMP production assay, the cAMP production was measured in 384-well low volume plates (Greiner; cat #784075) using the Cisbio™ cAMP HiRange HTRF Assay Kit (CisBio) according to the manufacturer's protocol.
Briefly, compounds were initially diluted in 100% DMSO (12-point serial dilution by half logs) in a 96-well plate and then were further diluted 1:50 in PBS containing 10 mM HEPES. 5 μL were transferred to the 384-well assay plate in duplicate. HEK293-EBNA cells stably overexpressing mouse TGR5 were harvested using non-enzymatic cell dissociation buffer (Sigma), spun down, then resuspended in serum-free DMEM with 500 μM IBMX at a density of 500,000 cells/mL. 5 μL of cell suspension was transferred to each well of the 384-well assay plate already containing compound. The plate was covered and incubated at room temperature for 1 hour. The d2-cAMP and anti-cAMP Ab-cryptate stock solutions were prepared as per kit instructions. Then 5 μL of each conjugate (d2 and cryptate) were added to each well of the assay plate. The plate was covered and incubated at room temperature for one (1) hour. The plate was read on an Envision™ plate reader (PerkinElmer).
as §1

For orientation: EC50 means the midpoint of the concentration-response curve.

With `CC(C)(C)OC(=O)NCCC1CCN(c2cc(N3CCC[C@@H](C(=O)NCCc4ccc(C#N)cc4)C3)nc(C(F)(F)F)n2)CC1` [Compound 312, (R)-tert-butyl (2-(1-(6-(3-((4-cyanophenethyl)carbamoyl)piperidin-1-yl)-2-(trifluoromethyl)pyrimidin-4-yl)piperidin-4-yl)ethyl)carbamate], the EC50 at human TGR5 receptor and on mouse TGR5 receptor was 100 to 999 nM throughout.
Take `N#Cc1ccc(CCNC(=O)[C@@H]2CCN2c2cc(N3CCC(CCNC(=O)NCCOCCNC(=O)C(F)(F)F)CC3)nc(C(F)(F)F)n2)cc1` [Compound 357, (S)-N-(4-cyanophenethyl)-1-(6-(4-(13,13,13-trifluoro-4,12-dioxo-8-oxa-3,5,11-triazatridecyl)piperidin-1-yl)-2-(trifluoromethyl)pyrimidin-4-yl)azetidine-2-carboxamide]: the EC50 on human TGR5 receptor and on mouse TGR5 receptor was below 100 nM each time.
On to `CN(C(=O)NCCC(=O)O)c1ccc(-c2cc(N3CCC[C@H]3C(=O)NCCc3ccc(C#N)cc3)nc(C(F)(F)F)n2)cc1` [Compound 196, (S)-3-(3-(4-(6-(2-((4-cyanophenethyl)carbamoyl)pyrrolidin-1-yl)-2-(trifluoromethyl)pyrimidin-4-yl)phenyl)-3-methylureido)propanoic acid], for which the concentration giving a half-maximal response (EC50) was 1000 to 30000 nM at human TGR5 receptor and 100 to 999 nM on mouse TGR5 receptor.
For the compound `O=C(NCCc1ccc(C(F)(F)F)cc1)[C@@H]1CCN1c1cc(N2CCC(CCCC3CCNCC3)CC2)nc(C(F)(F)F)n1` [Compound 275, (S)-1-(6-(4-(3-(piperidin-4-yl)propyl)piperidin-1-yl)-2-(trifluoromethyl)pyrimidin-4-yl)-N-(4-(trifluoromethyl)phenethyl)azetidine-2-carboxamide], the EC50 was below 100 nM on human TGR5 receptor and 100 to 999 nM on mouse TGR5 receptor.
Turning to `CN(C)CCN1CCN(c2cc(N3CC[C@H]3C(=O)NCCc3ccc(C#N)cc3)nc(C(F)(F)F)n2)CC1` [Compound 226, (S)-N-(4-cyanophenethyl)-1-(6-(4-(2-(dimethylamino)ethyl)piperazin-1-yl)-2-(trifluoromethyl)pyrimidin-4-yl)azetidine-2-carboxamide], the EC50 on human TGR5 receptor and at mouse TGR5 receptor was 100 to 999 nM each time.
In the case of `N#Cc1ccc(CCNC(=O)[C@@H]2CCCN2c2cc(N3CCC(CCNC(=O)N[C@H](CC(=O)O)C(=O)O)CC3)nc(C(F)(F)F)n2)cc1` [Compound 82, (R)-2-(3-(2-(1-(6-((S)-2-((4-cyanophenethyl)carbamoyl)pyrrolidin-1-yl)-2-(trifluoromethyl)pyrimidin-4-yl)piperidin-4-yl)ethyl)ureido)succinic acid], the EC50 on human TGR5 receptor and at mouse TGR5 receptor was below 100 nM throughout.
As to `O=C(CCCC1CCN(c2cc(N3CCC[C@@H](C(=O)NCCc4ccc(C(F)(F)F)cc4)C3)nc(C(F)(F)F)n2)CC1)NCCS(=O)(=O)O` [Compound 336, (R)-2-(4-(1-(2-(trifluoromethyl)-6-(3-((4-(trifluoromethyl)phenethyl)carbamoyl)-piperidin-1-yl)pyrimidin-4-yl)piperidin-4-yl)butanamido)ethanesulfonic acid], the EC50 at human TGR5 receptor is 100 to 999 nM; at mouse TGR5 receptor, below 100 nM.
The corresponding values for `CC(=O)NCCOCCNC(=O)NCCC1CCN(c2cc(N3CC[C@H]3C(=O)NCCc3ccc(C#N)cc3)nc(C(F)(F)F)n2)CC1` [Compound 359, (S)-N-(4-cyanophenethyl)-1-(6-(4-(4,12-dioxo-8-oxa-3,5,11-triazatridecyl)piperidin-1-yl)-2-(trifluoromethyl)pyrimidin-4-yl)azetidine-2-carboxamide] are below 100 nM and below 100 nM.
The corresponding values for `CN(CCS(=O)(=O)O)c1c(NCCC2CCN(c3cc(N4CC[C@H]4C(=O)NCCc4ccc(C#N)cc4)nc(C(F)(F)F)n3)CC2)c(=O)c1=O` [Compound 299, (S)-2-((2-((2-(1-(6-(2-((4-cyanophenethyl)carbamoyl)azetidin-1-yl)-2-(trifluoromethyl)pyrimidin-4-yl)piperidin-4-yl)ethyl)amino)-3,4-dioxocyclobut-1-en-1-yl)(methyl)amino)ethanesulfonic acid] are below 100 nM and below 100 nM.
`N#Cc1ccc(CCNC(=O)[C@@H]2CCCN2c2cc(-c3ccc(CCNC(=O)NCCCS(=O)(=O)O)cc3)nc(C(F)(F)F)n2)cc1` [Compound 195, (S)-3-(3-(4-(6-(2-((4-cyanophenethyl)carbamoyl)pyrrolidin-1-yl)-2-(trifluoromethyl)pyrimidin-4-yl)phenethyl)ureido)propane-1-sulfonic acid]: the EC50 is 100 to 999 nM on human TGR5 receptor and below 100 nM at mouse TGR5 receptor.
For `N#Cc1ccc(CCNC(=O)[C@@H]2CCCN2c2cc(-c3ccc(CCC(=O)NCCS(=O)(=O)O)cc3)nc(C(F)(F)F)n2)cc1` [Compound 189, (S)-2-(3-(4-(6-(2-((4-cyanophenethyl)carbamoyl)pyrrolidin-1-yl)-2-(trifluoromethyl)pyrimidin-4-yl)phenyl)propanamido)ethanesulfonic acid], the EC50 at human TGR5 receptor and on mouse TGR5 receptor was below 100 nM in each case.
On to `CN(C)[C@@H]1C[C@@H](C(=O)NCCc2ccc(C(F)(F)F)cc2)N(c2cc(N3CCC(CCNC(=O)NCCC(=O)O)CC3)nc(C(F)(F)F)n2)C1` [Compound 352, 3-(3-(2-(1-(6-((2S,4R)-4-(dimethylamino)-2-((4-(trifluoromethyl)phenethyl)carbamoyl)pyrrolidin-1-yl)-2-(trifluoromethyl)pyrimidin-4-yl)piperidin-4-yl)ethyl)ureido)propanoic acid], for which the EC50 on human TGR5 receptor and on mouse TGR5 receptor was 1000 to 30000 nM throughout.
In the case of `N#Cc1ccc(CCNC(=O)[C@@H]2CCCN2c2cc(N3CCC(CCCC(=O)NCCNc4nccc(C(=O)O)n4)CC3)nc(C(F)(F)F)n2)cc1` [Compound 102, (S)-2-((2-(4-(1-(6-(2-((4-cyanophenethyl)carbamoyl)pyrrolidin-1-yl)-2-(trifluoromethyl)pyrimidin-4-yl)piperidin-4-yl)butanamido)ethyl)amino) pyrimidine-4-carboxylic acid], the EC50 on human TGR5 receptor and on mouse TGR5 receptor was below 100 nM each time.
